Results from patent US20250064891A1, “HOST PROTEASES ESSENTIAL FOR PARAINFLUENZA SPREAD IN THE HUMAN LUNG: POTENTIAL TARGETS FOR ANTIVIRAL INTERVENTIONS” (The Trustees of Columbia University in the City of New York, priority 2022, published 2025).
“Also recorded” adds a separate entry of the source.

Experiments:
[1] = system: serine proteases, such as TMPRSS2; test: Inhibition of serine proteases (statement without method)
HPIV3 [2] = test: HPIV3 titer (infectious viral particles) released by infected Calu-3 cells / HAE treated with protease inhibitor; type: cell-based, human parainfluenza virus 3 (HPIV3); conditions: for production of infectious viral particles / viral spread (HPIV3 titer): Calu-3 cell culture media and HAE apical washes 3 days after infection (FIG. 3); for viral titer: virions released by infected Calu-3 cells into the media (FIG. 8A)
Source text: Values are means and SEM from one biological replicate.

HPIV3 F = conditions: for HPIV3 F cleavage: Calu-3 cells and HAE inoculated with HPIV-3 F E108 or F K108, treated after inoculation (FIG. 3); for HPIV3 F E108 (F0) cleavage: Western blot of Calu-3 cell media (FIG. 8B)
Experimental: (A) Calu-3 cells and (B) HAE were inoculated with HPIV-3 F E108 (left) or HPIV-3 F K108 (right). After inoculation, cells were treated with the indicated concentrations of aprotinin or leupeptin. HPIV3 infected Calu-3 cell culture media and HAE apical wash resolved by reducing SDS-PAGE and immunoblotted with anti-HPIV3 F antibody. HPIV3 titer in cell culture media and HAE apical washes 3 days after infection. Values are means and SEM from 1-3 biological replicates.
Virions released by the infected cells into the media were titered. B) Western blotting for HPIV3 F in Calu-3 cell media.

HPIV3 [3] = test: HPIV3 spread in intranasally infected cotton rats, viral titer of nasal tissue by plaque assay; conditions: intranasal nafamostat 3 mg/kg body weight daily, sacrificed 3 days after infection (FIG. 5)
Experimental: Viral titer (LogTCID50 per gram of nasal tissue) was determined by plaque assay. Values are means and SEM.

Molecule | inhibition of serine proteases, such as TMPRSS2 [1] | production of infectious viral particles / viral spread (HPIV3 titer) (HPIV3 [2]) | viral titer (HPIV3 [2]) | HPIV3 F cleavage (HPIV3 F) | HPIV3 F E108 (F0) cleavage (HPIV3 F) | HPIV3 spread in vivo (viral titer, LogTCID50 per gram of nasal tissue) (HPIV3 [3])
CN(C)C(=O)COC(=O)Cc1ccc(OC(=O)c2ccc(NC(=N)N)cc2)cc1 [camostat] | effective inhibitors of serine proteases |  |  |  |  | 
CC(=O)N[C@@H](CC(C)C)C(=O)N[C@@H](CC(C)C)C(=O)N[C@H](C=O)CCCNC(=N)N [leupeptin] | effective inhibitors of serine proteases | inhibited viral spread; also recorded: reduces production of infectious viral particles | reduced viral titer | block HPIV3 F cleavage | reduced HPIV3 F E108 cleavage | 
N=C(N)c1ccc2cc(OC(=O)c3ccc(N=C(N)N)cc3)ccc2c1 [Nafamostat] |  |  |  |  |  | reduced HPIV3 spread in nasal tissue of cotton rats; also recorded: blocks HPIV3 spread in vivo
aprotinin | effective inhibitors of serine proteases | inhibited viral spread; also recorded: reduces production of infectious viral particles | reduced viral titer; also recorded: dose-dependent reduction in viral titer | block HPIV3 F cleavage | reduced HPIV3 F E108 cleavage; also recorded: significant reduction in F0 cleavage | 
